Assay results reported in ChEMBL document CHEMBL1146439, “Novel mono-tetrahydrofuran ring acetogenins, from the bark of Annona squamosa, showing cytotoxic selectivities for the human pancreatic carcinoma cell line, PACA-2” (J Nat Prod, 1997).
In brackets after ≈: the same amount, converted by molar mass.

Assays:
A549 = assay: Cytotoxicity against human A549 cells after 7 days by MTT assay; assay type: functional; settings: A549, 168 h, read-out: ED50 (the source's name)
[1] = Toxicity against brine shrimp; assay type: organism-based; settings: artemia, in vivo
MCF7 = assay: Cytotoxicity against human MCF7 cells after 7 days by MTT assay; assay type: functional; settings: MCF7, 168 h, read-out: ED50 (the source's name)
A498 = assay: Cytotoxicity against human A498 cells after 7 days by MTT assay; assay type: functional; settings: A498, 168 h, read-out: ED50 (the source's name)
PC-3 = assay: Cytotoxicity against human PC3 cells after 7 days by MTT assay; assay type: functional; settings: PC-3, 168 h, read-out: ED50 (the source's name)
MIA PaCa-2 = assay: Cytotoxicity against human MIAPaCa2 cells after 7 days by MTT assay; assay type: functional; settings: for EC50: Homo sapiens, MIA PaCa-2, 168 h, read-out: ED50 (the source's name)
HT-29 = assay: Cytotoxicity against human HT-29 cells after 7 days by MTT assay; assay type: functional; settings: HT-29, 168 h, read-out: ED50 (the source's name)

| Compound | EC50 (A549) [µg/mL] | LC50 [1] [µg/mL] | EC50 (MCF7) [µg/mL] | EC50 (A498) [µg/mL] | EC50 (PC-3) [µg/mL] | EC50 (MIA PaCa-2) [µg/mL] | EC50 (HT-29) [µg/mL] | ED50 (MIA PaCa-2) [×10⁻⁴ ug/ml] |
| --- | --- | --- | --- | --- | --- | --- | --- | --- |
| CCCCCCCCC/C=C\CC[C@@H](O)[C@H]1CC[C@H]([C@H](O)CCCCCC(=O)CCCC[C@@H]2CC(CC(C)=O)C(=O)O2)O1 (mixture of isomers) | > 1 | 0.44 | > 1 | > 1 | 0.032 | 0.0022 | > 1 | – |
| CCCCCCCCCCCC[C@H](O)[C@@H]1CC[C@H]([C@H](O)CCCCCC(=O)CCCC[C@@H](O)CC2=C[C@H](C)OC2=O)O1 [MOSIN C] | 0.6 (≈ 1.01 µM) | 0.15 (≈ 0.252 µM) | > 1 | > 1 | > 1 | – | > 1 | 1.2 |
| CCCCCCCCCCCC[C@@H](O)[C@H]1CC[C@H]([C@H](O)CCCCCC(=O)CCCC[C@@H](O)CC2=C[C@H](C)OC2=O)O1 | 0.27 (≈ 0.454 µM) | 0.41 (≈ 0.689 µM) | > 1 | > 1 | 0.0096 (≈ 0.0161 µM) | – | > 1 | 2.4 |
| CCCCCCCCCCCC[C@H](O)[C@H]1CC[C@H]([C@H](O)CCCCCC(=O)CCCC[C@@H](O)CC2=C[C@H](C)OC2=O)O1 [MOSIN B] | 0.94 (≈ 1.58 µM) | 0.29 (≈ 0.487 µM) | > 1 | > 1 | 0.35 (≈ 0.588 µM) | – | > 1 | 2.5 |
| COc1cccc2c1C(=O)c1c(O)c3c(c(O)c1C2=O)C[C@@](O)(C(=O)CO)C[C@@H]3O[C@H]1C[C@H](N)[C@H](O)[C@H](C)O1 [DOXORUBICIN] | 0.0053 (≈ 0.00975 µM) | 0.26 (≈ 0.478 µM) | 0.2 (≈ 0.368 µM) | 0.01 (≈ 0.0184 µM) | 0.032 (≈ 0.0589 µM) | 0.018 (≈ 0.0331 µM) | 0.02 (≈ 0.0368 µM) | – |
